The numbers were not newly measured in patent US20160331734A1, “SUBSTITUTED N-ARYL PYRIDINONES” (AUSPEX PHARMACEUTICALS, INC., priority 2014, published 2016), which cites them from elsewhere.

The subject of series [1] is leiomyoma cells.
The subject of series [2] is myometrial cells.
The conditions of series [3]: humans.

As to `Cc1ccc(=O)n(-c2ccccc2)c1` [Pirfenidone, 5-Methyl-1-phenylpyridin-2(1H)-one], the DNA synthesis entry in series [1] and in series [2] was “inhibits DNA synthesis” in each case. Besides, in series [3], the half-life entry is reported as “very short”.
